Measurements reported in ChEMBL document CHEMBL1201862, “PubChem BioAssay data set” (2004).
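A five-concentration, 48-hour dose response in 96-well plates underlies each endpoint, interpolated linearly between surrounding concentrations. GI50 marks 50% less growth.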 The source made the active and inactive calls. Cut-off read from the data, not from the text of the source: active = GI50 up to about 1.1 µM and inactive = higher.

How the values were obtained:
Assay in all cases: NCI-60 cell line screen, 48 h
[1] = system: M19-MEL
[2] = system: A498
[3] = system: SNB-78
[4] = system: KM-20L2
[5] = system: DMS-114
[6] = system: HOP-18
[7] = system: SR
[8] = system: RXF 631
[9] = system: Hs-578T

SMILES	GI50 [1]	GI50 [2]	GI50 [3]	GI50 [4]	GI50 [5]	GI50 [6]	GI50 [7]	GI50 [8]	GI50 [9]
C=CC(C)C1(CCCOCc2ccccc2)C(=S)N2CCC3(CC24CCCC14)OCCO3 (stereo not given)	25.6 µM (inactive)	5.01 µM (inactive)	9.48 µM (inactive)	62.2 µM (inactive)	4.97 µM (inactive)	> 100 µM (inactive)			
C/C=C/C1=CC(=O)C(O)C1O (stereo not given)	26.7 µM (inactive)	8.28 µM (inactive)	57.8 µM (inactive)	28.2 µM (inactive)	22 µM (inactive)	12.4 µM (inactive)			
O=C(NC1C=CCC2C(=O)N(c3ccccc3)C(=O)C12)OCc1ccccc1 (stereo not given)	> 100 µM (inactive)		> 100 µM (inactive)	> 100 µM (inactive)		> 100 µM (inactive)	> 100 µM (inactive)		
Cc1cccc(C(C)C)c1NC(=O)/C(Cc1c([N+](=O)[O-])cccc1[N+](=O)[O-])=N/NC(=O)CC#N	> 100 µM (inactive)	44.4 µM (inactive)		> 100 µM (inactive)	> 100 µM (inactive)	> 100 µM (inactive)		> 100 µM (inactive)	
CC(C)=CC1(C)/C(=N\O)C(C)(CC(C)C)C(=O)N1O (stereo not given)	> 100 µM (inactive)	> 100 µM (inactive)	> 100 µM (inactive)	> 100 µM (inactive)	> 100 µM (inactive)		> 100 µM (inactive)	> 100 µM (inactive)	
Cn1cc(NC(=O)[C@H]2CCC(N)=N2)cc1C(=O)NCCC(=N)N			> 100 µM (inactive)	> 100 µM (inactive)	> 100 µM (inactive)	> 100 µM (inactive)	> 100 µM (inactive)		
COc1ccc(C(=O)/C=C/c2ccc(OCC(=O)N3CCN(c4ccccc4)CC3)cc2)cc1	> 100 µM (inactive)	55.1 µM (inactive)	15.1 µM (inactive)	> 100 µM (inactive)	> 90.6 µM (inactive)	> 100 µM (inactive)	18.6 µM (inactive)		> 40.7 µM (inactive)
COc1ccc(-c2c3c(nc4nc(SCCc5ccccc5)nc(N)c24)CCCC3)cc1OC							> 100 µM (inactive)		27 µM (inactive)
CC1CC/C(=C\c2ccc(Cl)cc2)C(=O)/C1=C\c1ccc(Cl)cc1 (stereo not given)		1.63 µM (inactive)							36.8 µM (inactive)
O=C1C[C@H](Sc2ccccc2)C2(OCCO2)[C@@H](Sc2ccccc2)C1		15.1 µM (inactive)					0.322 µM (active)		1.77 µM (inactive)
c1ccc2c(c1)CCCC/C2=N/OCC1CO1 (stereo not given)		> 100 µM (inactive)	57.4 µM (inactive)	> 100 µM (inactive)	34.8 µM (inactive)	34.7 µM (inactive)	26.4 µM (inactive)		
CC1CN=C(N(C(=O)Nc2ccccc2)C2CCCCC2)S1 (stereo not given)		14.4 µM (inactive)					15.9 µM (inactive)		20.7 µM (inactive)
COc1ccc(/N=C(\C)c2ccncc2)cc1		40.9 µM (inactive)							> 100 µM (inactive)
CCOC(=O)NC(OCc1ccccc1)(C(=O)OC)C(F)(F)F (stereo not given)							> 100 µM (inactive)		> 100 µM (inactive)
CCOC(=O)c1cc(C2CCN(Cc3ccccc3)C2=S)c(C(=O)C=[N+]=[N-])[nH]1 (stereo not given)		77.4 µM (inactive)							45.6 µM (inactive)
O=C(O)C1=CNC(C(=O)O)=NN1	> 100 µM (inactive)			> 100 µM (inactive)	> 100 µM (inactive)	> 100 µM (inactive)	> 100 µM (inactive)	> 100 µM (inactive)	

SMILES	GI50 [1]	GI50 [2]	GI50 [3]	GI50 [4]	GI50 [5]	GI50 [6]	GI50 [7]	GI50 [8]	GI50 [9]
O=C(Nc1c(C(=O)NC2CCCCC2)[nH]c(=O)[nH]c1=O)c1ccc(Cl)cc1	> 100 µM (inactive)				> 100 µM (inactive)	> 100 µM (inactive)	> 100 µM (inactive)		
Cc1csc(/N=C(/NCCN2CCOCC2)Nc2nc(C)cs2)n1	> 100 µM (inactive)	> 57.9 µM (inactive)	> 100 µM (inactive)	> 100 µM (inactive)	> 100 µM (inactive)	> 100 µM (inactive)			
C[C@H](O)C(=O)SC[C@H](NC(=O)CC[C@@H](N)C(=O)O)C(=O)NCC(=O)O	> 100 µM (inactive)			> 100 µM (inactive)	> 100 µM (inactive)		> 100 µM (inactive)		
COC(=O)C(=O)Cc1nc2ccccc2o1	> 100 µM (inactive)	> 100 µM (inactive)	> 100 µM (inactive)		> 100 µM (inactive)		> 100 µM (inactive)	> 100 µM (inactive)	
CCOC(=O)c1c(N=C(S)Nc2ccccc2)sc2c1CCN(C)C2		> 100 µM (inactive)							> 100 µM (inactive)
N#CCc1c(F)c(F)c(F)c(F)c1F		> 100 µM (inactive)					> 100 µM (inactive)		> 100 µM (inactive)
N=c1c2ccccc2nc2oc3ccc(Cl)cc3n12							31.9 µM (inactive)		2.28 µM (inactive)
O=C1c2ccccc2C(=O)N1/N=C1/SC(=N\c2ccccc2)/C(=N/c2ccccc2)N1c1ccccc1		19.7 µM (inactive)					> 31.6 µM (inactive)		> 22.9 µM (inactive)
Fc1ccc2c(c1)SC1=Nc3sc4cc(F)ccc4[n+]3CN12		12.7 µM (inactive)							9.98 µM (inactive)
CCCCCCCSc1nc2c(C(=O)OCC)ncn2c2ccccc12	> 100 µM (inactive)			> 100 µM (inactive)	> 100 µM (inactive)		> 100 µM (inactive)		
CN(C)CCC(O)(c1ccccc1)C(O)(CCN(C)C)c1ccccc1 (stereo not given)	> 100 µM (inactive)	> 100 µM (inactive)	> 100 µM (inactive)	67 µM (inactive)	> 100 µM (inactive)				
O=C(N/N=C/c1ccccc1)c1c(F)c(F)c(F)c(F)c1F		> 100 µM (inactive)					> 100 µM (inactive)		> 100 µM (inactive)
CCO[C@]12C[C@H](OC)[C@@]3(O)CC(C1[C@H]3O)C13C4C2[C@H](OC)C1[C@](COC)(CN4CC)[C@H](O)C[C@@H]3OC (stereo not given in full)	> 100 µM (inactive)		> 100 µM (inactive)	> 100 µM (inactive)	> 100 µM (inactive)		> 100 µM (inactive)		
CC[C@]12C=CCN3CC[C@@]4(c5cc(Br)c(OC)c([N+](=O)[O-])c5N(C)[C@H]4[C@@](O)(C(=O)OC)[C@@H]1OC(C)=O)[C@@H]32		44.5 µM (inactive)					25.7 µM (inactive)		36.1 µM (inactive)
Cc1ccc(NC(=O)C(Cc2c[nH]c3ccccc23)NC(=O)Oc2ccccc2)cc1C (stereo not given)		27.4 µM (inactive)							38.3 µM (inactive)
